According to PubChem BioAssay AID1963856 (Molecular Pharmacology Branch, DTP, NCI, 2024):

Test system: LG0567-F671-PDC KRAS tumor spheroid viability
Experiment: Anticancer human tumor LG0567-F671-PDC patient-derived lung adenocarcinoma cell line growth inhibition [KRAS2]
Details: spheroids with HUVEC and MSC; for IC50: curve of first compound; for viability, T/C: stronger effect = lower value
Description: Multicellular complex tumor spheroid response to RAS pathway inhibitors in combination with a targeted agents in patient-derived cell lines with oncogenic KRAS variants from multiple cancer types
A high-throughput screen of multi-cell type tumor spheroids was designed to identify active combinations of targeted small molecules and KRAS pathway inhibitors. Complex spheroids include a stromal component modeled by human endothelial cells (HUVEC) and fibroblasts modeled by human mesenchymal stem cells (MSCs). The concentration ranges selected for each drug and investigational agent were based upon clinically achievable concentrations if the clinical Cmax of the agent was known.
Compounds. The drugs and investigational agents: BI-3406 (NSC825286), BAY-293 (NSC824723), batoprotafib (TNO155; NSC825523), sotorasib (AMG 510; NSC818433), MRTX1257 (NSC819558), elimusertib (BAY 1895344; NSC800525), molibresib (GSK525762; NSC774829), temuterkib (LY3214996; NSC803410), venetoclax (NSC766270), alisertib (NSC759677), olaparib (NSC753686), talazoparib (NSC767125), erdafitinib (NSC781556), ipatasertib (NSC767898), cabozantinib (NSC761068), nintedanib (NSC756659), abemaciclib (NSC768073), docetaxel (NSC628503), trametinib (NSC758246), and sapanisertib (NSC764658) were obtained from the National Cancer Institute (NCI) Developmental Therapeutics Program Chemical Repository. The FDA-approved anticancer drug set is available from the Developmental Therapeutics Program. […] The stock solutions were prepared in dimethyl sulfoxide (DMSO, Sigma-Aldrich, St. Louis, MO, cat. D2650) at 800-fold the tested concentration and stored at -70 degrees C prior to their use. All drugs and investigational agents were tested over a range starting from a high concentration at or near the clinical Cmax and decreasing in half-log increments. If the clinical Cmax for an agent had not been determined, the highest concentration tested was 10 microM.
Cell Culture. All cells were maintained in an incubator at 37 degrees C and 5% CO2 with 95% humidity. The PDC lines were cultured according to standard operating procedures established by the NCI PDMR (https://pdmr.cancer.gov/sops/default.htm). Briefly, all PDCs were thawed and cultured in Matrigel-coated flasks prepared with a working solution of 1X Ham's F-12 nutrient mix, without supplementation (Invitrogen, Waltham, MA, cat. 11765054), 100 U/mL penicillin-streptomycin (Invitrogen, cat. 15140122), and 2.5% Matrigel (Corning Inc., Corning, NY, cat. 354248) for the first three passages. All PDCs were cultured in complete DMEM/F-12 media containing advanced DMEM/F-12 (Invitrogen, cat. 12634028), 4.9% defined fetal bovine serum, heat inactivated (HyClone Laboratories Inc., Logan, UT, cat. SH30070.03HI), 389 ng/mL hydrocortisone (Sigma-Aldrich, cat. H4001), 9.7 ng/mL human EGF recombinant protein (Invitrogen, cat. PHG0313), 23.4 microg/mL adenine (Sigma-Aldrich, cat. A2786), 97.3 U/mL penicillin-streptomycin (Invitrogen, cat. 15140122), 1.9 mM L-glutamine (Invitrogen, cat. 25030081), and 9.7 microM Y-27632 dihydrochloride (Tocris Bioscience, Bristol, United Kingdom, cat. 1254). The PDCs were cultured in complete DMEM/F12 media without 9.7 microM Y-27632 dihydrochloride for at least two passages prior to the screen. The established cell line HOP-62 was cultured in RPMI 1640 medium, HEPES (Invitrogen, cat. 22400105) with 10% defined fetal bovine serum (HyClone Laboratories Inc., cat. SH30070.03) and 2 mM L-glutamine (Invitrogen, cat. 25030081). The pooled donor HUVEC were cultured in endothelial cell growth medium 2 (PromoCell, Heidelberg, Germany, cat. C-22011) and the hMSC were cultured in mesenchymal stem cell growth medium 2 (PromoCell, cat. C-28009). For all experiments, HUVEC and hMSC were used at passages </=5, while the malignant cell lines were used at passages </=15. […]

[1] = second compound 0.1 µM, first compound 0.0316 µM
[2] = second compound 0.1 µM, first compound 0.1 µM
[3] = second compound 0.1 µM, first compound 0.316 µM
[4] = second compound 0.1 µM, first compound 1 µM
[5] = second compound 0.316 µM, first compound 0.0316 µM
[6] = second compound 0.316 µM, first compound 0.1 µM
[7] = second compound 0.316 µM, first compound 0.316 µM
[8] = second compound 0.316 µM, first compound 1 µM
[9] = second compound 1 µM, first compound 0.0316 µM
[10] = second compound 1 µM, first compound 0.1 µM
[11] = second compound 1 µM, first compound 0.316 µM
[12] = second compound 1 µM, first compound 1 µM
[13] = second compound 3.16 µM, first compound 0.0316 µM
[14] = second compound 3.16 µM, first compound 0.1 µM
[15] = second compound 3.16 µM, first compound 0.316 µM
[16] = second compound 3.16 µM, first compound 1 µM
[17] = second compound 10 µM, first compound 0.0316 µM
[18] = second compound 10 µM, first compound 0.1 µM
[19] = second compound 10 µM, first compound 0.316 µM
[20] = second compound 10 µM, first compound 1 µM
[21] = second compound 0.1 µM, first compound 0.00316 µM
[22] = second compound 0.1 µM, first compound 0.01 µM
[23] = second compound 0.316 µM, first compound 0.00316 µM
[24] = second compound 0.316 µM, first compound 0.01 µM
[25] = second compound 1 µM, first compound 0.00316 µM
[26] = second compound 1 µM, first compound 0.01 µM
[27] = second compound 3.16 µM, first compound 0.00316 µM
[28] = second compound 3.16 µM, first compound 0.01 µM
[29] = second compound 10 µM, first compound 0.00316 µM
[30] = second compound 10 µM, first compound 0.01 µM
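Also: drug exposure lasted seven days after spheroids formed for three days.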
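For viability, T/C in this document: 100% = DMSO vehicle control viability.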

SMILES: CC(C)NCC(C(=O)N1CCN(c2ncnc3c2C(C)CC3O)CC1)c1ccc(Cl)cc1 (stereo not given) + C=CC(=O)N1CCN(c2nc(=O)n(-c3c(C)ccnc3C(C)C)c3nc(-c4c(O)cccc4F)c(F)cc23)C(C)C1
- IC50 (second compound 0.1 µM): < 31.6 nM
- IC50 (second compound 0.316 µM): < 31.6 nM
- IC50 (second compound 1 µM): < 31.6 nM
- IC50 (second compound 3.16 µM): < 31.6 nM
- IC50 (second compound 10 µM): < 31.6 nM
- viability, T/C [1]: 31.4%
- viability, T/C [2]: 25.9%
- viability, T/C [3]: 19.8%
- viability, T/C [4]: 14%
- viability, T/C (second compound 0.1 µM, first compound 3.16 µM): 14.5%
- viability, T/C (second compound 0.1 µM, first compound 10 µM): 12.8%
- viability, T/C [5]: 26.5%
- viability, T/C [6]: 28.5%
- viability, T/C [7]: 20.9%
- viability, T/C [8]: 13.7%
- viability, T/C (second compound 0.316 µM, first compound 3.16 µM): 13.7%
- viability, T/C (second compound 0.316 µM, first compound 10 µM): 10.6%
- viability, T/C [9]: 30.6%
- viability, T/C [10]: 26.5%
- viability, T/C [11]: 17%
- viability, T/C [12]: 15.9%
- viability, T/C (second compound 1 µM, first compound 3.16 µM): 14.4%
- viability, T/C (second compound 1 µM, first compound 10 µM): 12.6%
- viability, T/C [13]: 29.9%
- viability, T/C [14]: 21.2%
- viability, T/C [15]: 19.9%
- viability, T/C [16]: 19.1%
- viability, T/C (second compound 3.16 µM, first compound 3.16 µM): 13.3%
- viability, T/C (second compound 3.16 µM, first compound 10 µM): 11.3%
- viability, T/C [17]: 25.8%
- viability, T/C [18]: 17%
- viability, T/C [19]: 15.6%
- viability, T/C [20]: 13.3%
- viability, T/C (second compound 10 µM, first compound 3.16 µM): 15%
- viability, T/C (second compound 10 µM, first compound 10 µM): 11%

SMILES: CCN1CCN(Cc2ccc(Nc3ncc(F)c(-c4cc(F)c5nc(C)n(C(C)C)c5c4)n3)nc2)CC1 + C=CC(=O)N1CCN(c2nc(=O)n(-c3c(C)ccnc3C(C)C)c3nc(-c4c(O)cccc4F)c(F)cc23)C(C)C1
- IC50 (second compound 0.1 µM): < 3.16 nM
- IC50 (second compound 0.316 µM): < 3.16 nM
- IC50 (second compound 1 µM): < 3.16 nM
- IC50 (second compound 3.16 µM): < 3.16 nM
- IC50 (second compound 10 µM): < 3.16 nM
- viability, T/C [21]: 21.6%
- viability, T/C [22]: 21.6%
- viability, T/C [1]: 17.2%
- viability, T/C [2]: 18.7%
- viability, T/C [3]: 19.8%
- viability, T/C [4]: 24.2%
- viability, T/C [23]: 21.3%
- viability, T/C [24]: 19.6%
- viability, T/C [5]: 16.3%
- viability, T/C [6]: 16.4%
- viability, T/C [7]: 18.6%
- viability, T/C [8]: 25.7%
- viability, T/C [25]: 21.3%
- viability, T/C [26]: 22.3%
- viability, T/C [9]: 16.8%
- viability, T/C [10]: 17.3%
- viability, T/C [11]: 22%
- viability, T/C [12]: 23.7%
- viability, T/C [27]: 20.4%
- viability, T/C [28]: 21.1%
- viability, T/C [13]: 18.6%
- viability, T/C [14]: 15.9%
- viability, T/C [15]: 20.4%
- viability, T/C [16]: 33.8%
- viability, T/C [29]: 22.3%
- viability, T/C [30]: 20.6%
- viability, T/C [17]: 22.3%
- viability, T/C [18]: 20.6%
- viability, T/C [19]: 27.9%
- viability, T/C [20]: 12.8%

SMILES: Cn1ncnc1[C@H]1c2n[nH]c(=O)c3cc(F)cc(c23)N[C@@H]1c1ccc(F)cc1 + C=CC(=O)N1CCN(c2nc(=O)n(-c3c(C)ccnc3C(C)C)c3nc(-c4c(O)cccc4F)c(F)cc23)C(C)C1
- IC50 (second compound 0.1 µM): < 0.316 nM
- IC50 (second compound 0.316 µM): < 0.316 nM
- IC50 (second compound 1 µM): < 0.316 nM
- IC50 (second compound 3.16 µM): < 0.316 nM
- IC50 (second compound 10 µM): < 0.316 nM
- viability, T/C (second compound 0.1 µM, first compound 0.000316 µM): 24.7%
- viability, T/C (second compound 0.1 µM, first compound 0.001 µM): 27.1%
- viability, T/C [21]: 21.8%
- viability, T/C [22]: 21.3%
- viability, T/C [1]: 23.8%
- viability, T/C [2]: 24.4%
- viability, T/C (second compound 0.316 µM, first compound 0.000316 µM): 25.5%
- viability, T/C (second compound 0.316 µM, first compound 0.001 µM): 26.2%
- viability, T/C [23]: 23.1%
- viability, T/C [24]: 20.8%
- viability, T/C [5]: 24.1%
- viability, T/C [6]: 21.6%
- viability, T/C (second compound 1 µM, first compound 0.000316 µM): 29.7%
- viability, T/C (second compound 1 µM, first compound 0.001 µM): 27.1%
- viability, T/C [25]: 27.1%
- viability, T/C [26]: 20.9%
- viability, T/C [9]: 23.6%
- viability, T/C [10]: 22.8%
- viability, T/C (second compound 3.16 µM, first compound 0.000316 µM): 24.8%
- viability, T/C (second compound 3.16 µM, first compound 0.001 µM): 25.9%
- viability, T/C [27]: 25.2%
- viability, T/C [28]: 25.5%
- viability, T/C [13]: 23.4%
- viability, T/C [14]: 21.1%
- viability, T/C (second compound 10 µM, first compound 0.000316 µM): 21.9%
- viability, T/C (second compound 10 µM, first compound 0.001 µM): 23.5%
- viability, T/C [29]: 24.6%
- viability, T/C [30]: 20.2%
- viability, T/C [17]: 19.6%
- viability, T/C [18]: 20.1%
